Results as given in patent US9193744B2, “Heterocyclic nuclear hormone receptor modulators” (AbbVie Inc., priority 2012, dated 2015).
Read-outs that look alike come from different tables or passages of the source.

Key:
IL-6 = experiment: A549 Cell Assay to Measure Inflammation Markers (inhibition of IL-1β-induced IL-6); format: cell-based
Protocol: A549 Cell Assay to Measure Inflammation Markers
A549 cells were seeded (3E4 cells/well) in 96-well assay plates in culture medium (100 μL/well., F-12 K base media, supplemented with 10% FBS and 100 μ/mL-100 μg/mL Pen-Strep.) After overnight culture in an incubator set to 37° C., 4.9% CO2, and 90% humidity, media was removed from adherent cells by aspiration and replaced with 100 μL/well Assay Medium (F-12 K base media supplemented with 5% charcoal stripped calf sera and 100 U/mL-100 μg/mL Pen-Strep.) Compounds were prepared in DMSO and serial diluted (1:3, 1:4, or 1:5) with DMSO in Dilution Plate(s) to give 10 dilution points for each compound tested. Further dilution (1:250) of compound was made into assay medium and 50 μL/well diluted drug or DMSO/media control was applied to cells. After a 1 h pre-incubation in a temperature, CO2, and humidity controlled incubator, set to 37° C., 50 μL/well of 4 ng/mL IL-1β diluted in assay media, was applied to cultures. Assay plates, with a final volume of 200 μL/well and final concentrations of 0.1% DMSO and 1 ng/mL IL-1β were returned to incubator for a four h incubation period. Next, plates were spun at 183 g (1000 rpm in Beckman/Coulter Allegra 6KR centrifuge) for 10 min. Cell-free supernatant (150 μL/well) was collected and IL-6 was measured by MSD kit, following protocol of manufacturer, and using MSD SECTOR Imager 6000 instrument. Potency of compounds to inhibit IL-6 was determined using the percent reduction of measured IL-6 in wells with compound compared to control wells without drug, and relative to (100% inhibition) positive control compound of 1 μM prednisolone. Results were represented as IC50 and Emax values. To verify that viable cell numbers were similar across plate(s), and not confounding compound IC50 data interpretation, the remaining 50 μL/well of cells and media (after removal of supernatant) were used to run Cell Titer-Glo Assay per directions of manufacturer.

[1] = molecular target: T1, Glucocorticoid Receptor (GR) (Homo sapiens, UniProt P04150); experiment: GR Fluorescence Polarization Assay (PolarScreen Glucocorticoid Receptor Competitor Assay, Red); conditions: fluorescence polarization binding ranges
T1 construct: purchased Invitrogen P2893
T1 sequence (P04150 1-777): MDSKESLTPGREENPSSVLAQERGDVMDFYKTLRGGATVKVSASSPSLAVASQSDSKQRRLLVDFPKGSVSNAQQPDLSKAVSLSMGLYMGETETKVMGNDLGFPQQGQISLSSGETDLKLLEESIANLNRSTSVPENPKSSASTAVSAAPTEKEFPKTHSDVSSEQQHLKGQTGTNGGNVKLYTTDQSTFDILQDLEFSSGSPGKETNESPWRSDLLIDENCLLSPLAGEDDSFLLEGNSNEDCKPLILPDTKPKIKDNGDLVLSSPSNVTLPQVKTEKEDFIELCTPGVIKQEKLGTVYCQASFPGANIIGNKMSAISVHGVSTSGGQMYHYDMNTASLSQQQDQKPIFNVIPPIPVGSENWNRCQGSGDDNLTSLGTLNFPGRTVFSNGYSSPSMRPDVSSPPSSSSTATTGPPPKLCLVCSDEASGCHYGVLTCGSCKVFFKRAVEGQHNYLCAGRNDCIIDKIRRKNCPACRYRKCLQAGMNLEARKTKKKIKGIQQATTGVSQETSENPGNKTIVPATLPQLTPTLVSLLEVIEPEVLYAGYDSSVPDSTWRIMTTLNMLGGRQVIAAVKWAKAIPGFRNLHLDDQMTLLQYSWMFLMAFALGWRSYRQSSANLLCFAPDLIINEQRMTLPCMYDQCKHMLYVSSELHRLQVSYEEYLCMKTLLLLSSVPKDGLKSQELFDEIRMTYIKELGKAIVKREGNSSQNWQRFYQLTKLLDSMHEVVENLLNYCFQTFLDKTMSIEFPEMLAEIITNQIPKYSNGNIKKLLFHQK
Protocol: Fluorescence polarization assays were carried out using the PolarScreen™ Glucocorticoid Receptor Competitor Assay, Red from Invitrogen (P2893). The assay buffer was prepared according to the manufacturer's protocol and used to dilute the fluorescent glucocorticoid and GR. Compounds were prepared and serial diluted 1:4 in DMSO. Compound, fluorescent glucocorticoid and GR were added in a final volume of 20 μL and incubated overnight at 4° C. Fluorescent polarization was measured on the PerkinElmer Envision®. Fluorescence polarization binding ranges measured using GR Fluorescence Polarization Assay: […]

[2] = A549 cells, read-out: A549 cell assay
[3] = Homo sapiens, A549 cells, read-out: A549 cell assay

Row | Compound | IC50 (IL-6; [2]) | IC50 [1] | IC50 (IL-6; [3]) | IC50 (IL-6; Homo sapiens, A549, read-out: A549 cell assay)
1 | CC[C@@]12CC[C@](O)(COC)C[C@@H]1CCCc1cc3c(cnn3-c3ccnc(C)c3)cc12 (racemic) [Example 45] | < 100 nM | < 100 nM | – | –
2 | OC[C@]12CC[C@@](O)(C(F)(F)F)C[C@@H]1CCCc1cc3c(cnn3-c3ccc(F)cc3)cc12 [Example 79] | 100 to 1000 nM | < 100 nM | – | –
3 | CC[C@@]12CC[C@@](O)(CN[C@H](C)c3ccccc3)C[C@H]1CCCc1cc3c(cnn3-c3ccc(F)cc3)cc12 [Example 126, (3S,4aR,12bR)-12b-ethyl-9-(4-fluorophenyl)-3-((((R)-1-phenylethyl)amino)methyl)-1,2,3,4,4a,5,6,7,9,12b-decahydrobenzo[6,7]cyclohepta[1,2-f]indazol-3-ol] | – | < 100 nM | > 10000 nM | –
4 | CC[C@@]12CC[C@](O)(COC)C[C@@H]1CCOc1cc3c(cnn3-c3ccnc(C)c3)cc12 (single isomer, unassigned) [Example 128] | – | < 100 nM | < 100 nM | –
5 | N#CC[C@]1(O)CC[C@]2(CC3CC3)c3cc4cnn(-c5ccc(F)cc5)c4cc3CCC[C@@H]2C1 [Example 66] | < 100 nM | < 100 nM | – | –
6 | N#C[C@]12CC[C@@](O)(C(F)(F)F)C[C@@H]1CCCc1cc3c(cnn3-c3ccc(F)cc3)cc12 (single isomer, unassigned) [Example 73] | – | 100 to 1000 nM | – | > 10000 nM
7 | CC(=O)NC[C@]12CC[C@@](O)(C(F)(F)F)C[C@@H]1CCCc1cc3c(cnn3-c3ccc(F)cc3)cc12 (single isomer, unassigned) [Example 83] | – | 100 to 1000 nM | 100 to 1000 nM | –
8 | COC[C@@]1(O)CC[C@@]2(Cc3ncccn3)c3cc4cnn(-c5ccc(F)cc5)c4nc3CCC[C@H]2C1 [Example 158] | < 100 nM | < 100 nM | – | –
9 | CC[C@]12CC[C@](O)(CN[C@H](C)c3ccccc3)C[C@@H]1CCCc1cc3c(cnn3-c3ccc(F)cc3)cc12 [Example 125, (3R,4aS,12bS)-12b-ethyl-9-(4-fluorophenyl)-3-((((R)-1-phenylethyl)amino)methyl)-1,2,3,4,4a,5,6,7,9,12b-decahydrobenzo[6,7]cyclohepta[1,2-f]indazol-3-ol] | – | 100 to 1000 nM | > 10000 nM | –
10 | CC[C@@]12CC[C@](O)(C(F)(F)F)C[C@H]1CCCc1c2cc2cnn(-c3ccc(F)cc3)c2c1Br [Example 102, (3R,4aR,12bR)-8-Bromo-12b-ethyl-9-(4-fluorophenyl)-3-(trifluoromethyl)-1,2,3,4,4a,5,6,7,9,12b-decahydrobenzo[6,7]cyclohepta[1,2-f]indazol-3-ol] | – | < 100 nM | < 100 nM | –
11 | CC[C@@]12C[C@H](O)[C@@](O)(C(F)(F)F)C[C@H]1CCCc1cc3c(cnn3-c3ccc(F)cc3)cc12 [Example 108, (2S,3R,4aR,12bR)-12b-Ethyl-9-(4-fluorophenyl)-3-(trifluoromethyl)-1,2,3,4,4a,5,6,7,9,12b-decahydrobenzo[6,7]cyclohepta[1,2-f]indazole-2,3-diol] | – | < 100 nM | < 100 nM | –
12 | CC[C@@]12CC[C@](O)(COC)C[C@@H]1CCOc1cc3c(cnn3-c3ccc(F)cc3)cc12 [Example 131] | < 100 nM | < 100 nM | – | –
13 | C[C@]1(O)CC[C@]2(Cc3ccccn3)c3cc4cnn(-c5ccncc5)c4cc3CCC[C@@H]2C1 [Example 31] | < 100 nM | 100 to 1000 nM | – | –
14 | CC[C@]12CC[C@@](O)(C(F)(F)F)C[C@@H]1CCCc1cc3c(cnn3-c3ccc(S(C)(=O)=O)cc3)cc12 [Example 169, (3S,4aS,12bS)-12b-ethyl-9-(4-(methylsulfonyl)phenyl)-3-(trifluoromethyl)-1,2,3,4,4a,5,6,7,9,12b-decahydrobenzo[6,7]cyclohepta[1,2-f]indazol-3-ol] | – | 100 to 1000 nM | 1000 to 10000 nM | –
15 | CC[C@]12C[C@H](O)[C@@](O)(C(F)(F)F)C[C@H]1CCCc1cc3c(cnn3-c3ccc(F)cc3)cc12 (single isomer, unassigned) [Example 99] | – | < 100 nM | < 100 nM | –
16 | CC[C@@]12CC[C@](O)(C(F)(F)F)C[C@H]1CCCc1nc3c(cnn3-c3ccc(F)cc3)cc12 (racemic) [Example 152, rac-(3R,4aR,12bR)-12b-ethyl-9-(4-fluorophenyl)-3-(trifluoromethyl)-1,2,3,4,4a,5,6,7,9,12b-decahydrobenzo[3,4]cyclohepta[1,2-b]pyrazolo[4,3-e]pyridin-3-ol] | – | < 100 nM | < 100 nM | –
17 | N#CC[C@@]1(O)CC[C@@]2(Cc3ccccn3)c3cc4cnn(-c5ccncc5)c4cc3CCC[C@H]2C1 [Example 68] | < 100 nM | < 100 nM | – | –
18 | CC[C@]12CC[C@](O)(COC)C[C@@H]1CCCc1cc3c(cnn3-c3ccc(F)cc3)cc12 (single isomer, unassigned) [Example 8] | – | 100 to 1000 nM | > 10000 nM | –
19 | CCOC[C@@]1(O)CC[C@]2(CC)c3cc4cnn(-c5ccc(F)cc5)c4cc3CCC[C@H]2C1 (single isomer, unassigned) [Example 10] | – | 100 to 1000 nM | > 10000 nM | –
20 | CC[C@]12CC[C@](C)(O)C[C@H]1CCCc1cc3c(cnn3-c3ccc(F)cc3)cc12 [Example 53] | < 100 nM | < 100 nM | – | –
21 | O[C@]1(C(F)(F)F)CC[C@@]2(Cc3ccccn3)c3cn4cnc(-c5ccc(F)cc5)c4cc3CCC[C@@H]2C1 (racemic) [Example 166, rac-(3R,4aR,13bS)-9-(4-fluorophenyl)-13b-(pyridin-2-ylmethyl)-3-(trifluoromethyl)-2,3,4,4a,5,6,7,13b-octahydro-1H-benzo[3,4]cyclohepta[1,2-d]imidazo[1,5-a]pyridin-3-ol] | – | < 100 nM | < 100 nM | –
22 | CC[C@@]12C[C@H](O)[C@](O)(C(F)(F)F)C[C@H]1CCCc1cc3c(cnn3-c3ccc(F)cc3)cc12 (single isomer, unassigned) [Example 121] | – | < 100 nM | < 100 nM | –
23 | CC[C@@]12CC[C@](O)(CC#N)C[C@@H]1CCOc1cc3c(cnn3-c3ccnc(C)c3)cc12 [Example 145] | – | < 100 nM | < 100 nM | –
24 | CC[C@@]12CC[C@](O)(COC)C[C@H]1CCCc1cc3c(cnn3-c3ccc(F)cc3)cc12 [Example 37] | < 100 nM | < 100 nM | – | –
25 | COC[C@@]1(O)CC[C@@]2(Cc3ccccn3)c3cn4cnc(-c5ccc(F)cc5)c4cc3CCC[C@H]2C1 (racemic) [Example 167, rac-(3R,4aS,13bS)-9-(4-Fluorophenyl)-3-(methoxymethyl)-13b-(pyridin-2-ylmethyl)-2,3,4,4a,5,6,7,13b-octahydro-1H-benzo[3,4]cyclohepta[1,2-d]imidazo[1,5-a]pyridin-3-ol] | – | < 100 nM | < 100 nM | –
26 | COC[C@@]1(O)CC[C@@]2(Cc3ccccn3)c3cc4cnn(-c5ccc(F)cc5)c4nc3CCC[C@@H]2C1 [Example 156] | < 100 nM | < 100 nM | – | –
27 | CC[C@@]12CC[C@](O)(COC)C[C@@H]1CCCc1cc3c(cnn3-c3ccncc3)cc12 (single isomer, unassigned) [Example 123] | – | < 100 nM | < 100 nM | –
28 | C[C@@]1(O)CC[C@@]2(Cc3ccccn3)c3cc4cnn(-c5ccc(F)cc5)c4nc3CCC[C@H]2C1 (single isomer, unassigned) [Example 149] | – | < 100 nM | < 100 nM | –
